Measurements: BigSolDB 2.1

OC(Cc1ccccc1Cl)(Cn1[nH]cnc1=S)C1(Cl)CC1 (centres undefined)
solubility (mole fraction)
Conditions | in acetonitrile | in isopropanol | in methanol | in n-butanol | in n-propanol | in sec-butanol | in toluene
283.15 K | 0.00629 | 0.0115 | 0.01 | 0.0147 | 0.0125 | 0.00735 | 0.00196
288.15 K | 0.008 | 0.0142 | 0.0127 | 0.018 | 0.0161 | 0.00954 | 0.00287
293.15 K | 0.0103 | 0.0176 | 0.0154 | 0.0215 | 0.0199 | 0.0124 | 0.00368
298.15 K | 0.0126 | 0.0215 | 0.019 | 0.0268 | 0.0248 | 0.0152 | 0.00481
303.15 K | 0.0171 | 0.0268 | 0.0232 | 0.0327 | 0.0305 | 0.0191 | 0.00574
308.15 K | 0.0214 | 0.0331 | 0.0307 | 0.0417 | 0.0373 | 0.0259 | 0.00782
313.15 K | 0.0254 | 0.0385 | 0.0371 | 0.0513 | 0.0465 | 0.0321 | 0.0101
